Among the data in patent US11446287B2, “Compounds and methods for EP300 or CBP modulation and indications therefor” (Opna Immuno-Oncology SA, priority 2019, dated 2022) are IC50 values, retold here.

pIC50: −log10 of the molar value.

This test addresses T1, Recombinant human BRD4 containing dual bromodomains (BRD4-BD12 (1-477)) (Homo sapiens, UniProt O60885).
T1 construct: Recombinant human BRD4 containing dual bromodomains (BRD4-BD12 (1-477)); made in house; host or cells: E. coli BL21-CodonPlus (DE3), modified pET vector
Put plainly: BRD4 Alphascreen binding assay. The essentials:
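AlphaScreen proximity between Ni-chelate-bound BRD4-BD12 (1-477) and streptavidin-captured H4 K5/K8/K12/K16-acetyl peptide measured after 1 h room-temperature compound incubation and 30 min with 7.5 μg/ml beads. Buffer: 50 mM HEPES pH 7.5, 50 mM NaCl, 0.01% BSA, 0.01% Triton X-100; data plate-normalized and four-parameter fit for IC50.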
A general note: Bead proximity is the source of the signal in Alpha formats.
Usually pIC50 stands for the negative decadic logarithm of the IC50, by convention in mol/L. On to `Cc1noc(C)c1-c1cnc2c(CC3CCC3)cn(-c3c(Cl)cc(C(=O)O)cc3Cl)c2c1` [P-0074, 3,5-dichloro-4-(3-(cyclobutylmethyl)-6-(3,5-dimethylisoxazol-4-yl)-1H-pyrrolo[3,2-b]pyridin-1-yl)benzoic acid], for which the pIC50 was 3.00 to 5.10.
On to `Cc1cc(C(=O)O)cnc1-n1cc(CC2CCC2)c2ncc(-c3c(C)noc3C)cc21` [P-0075, 6-(3-(cyclobutylmethyl)-6-(3,5-dimethylisoxazol-4-yl)-1H-pyrrolo[3,2-b]pyridin-1-yl)-5-methylnicotinic acid], for which the negative logarithm of the IC50 (pIC50) is 3.00 to 5.10.
For `Cc1noc(C)c1-c1cnc2c(CC3CCC3)cn(-c3ccc(C#N)cc3)c2c1` [P-0076, 4-(3-(cyclobutylmethyl)-6-(3,5-dimethylisoxazol-4-yl)-1H-pyrrolo[3,2-b]pyridin-1-yl)benzonitrile], the pIC50 is 3.00 to 5.10.
For the compound `Cc1noc(C)c1-c1cnc2c(CC3CCC3)cn(-c3ccnc(C#N)c3)c2c1` [P-0077, 4-(3-(cyclobutylmethyl)-6-(3,5-dimethylisoxazol-4-yl)-1H-pyrrolo[3,2-b]pyridin-1-yl)picolinonitrile], the pIC50 was 5.10 to 6.00.
`Cc1noc(C)c1-c1cnc2c(c1)c(-c1cccc(C(=O)NC#N)c1)cn2Cc1ccccc1` [P-0078, 3-(1-benzyl-5-(3,5-dimethylisoxazol-4-yl)-1H-pyrrolo[2,3-b]pyridin-3-yl)-N-cyanobenzamide]: the pIC50 was 5.10 to 6.00.
For the compound `Cc1noc(C)c1-c1cnc2c(c1)c(-c1cccc(C(=O)NO)c1)cn2Cc1ccccc1` [P-0079, 3-(1-benzyl-5-(3,5-dimethylisoxazol-4-yl)-1H-pyrrolo[2,3-b]pyridin-3-yl)-N-hydroxybenzamide], the negative-log IC50 (pIC50) was 5.10 to 6.00.
The figure for `Cc1noc(C)c1-c1cnc2c(c1)c(-c1ccc(C(=O)O)cc1)cn2C(C)c1ccccn1` (centres unmarked) [P-0080, 4-(5-(3,5-dimethylisoxazol-4-yl)-1-(1-(pyridin-2-yl)ethyl)-1H-pyrrolo[2,3-b]pyridin-3-yl)benzoic acid] is 5.10 to 6.00; for `Cc1noc(C)c1-c1cnc2c(c1)c(-c1cccc(S(N)(=O)=O)c1)cn2Cc1ccccc1` [P-0081, 3-(1-benzyl-5-(3,5-dimethylisoxazol-4-yl)-1H-pyrrolo[2,3-b]pyridin-3-yl)benzenesulfonamide] it is 5.10 to 6.00.
The result for `CNS(=O)(=O)c1cccc(-c2cn(Cc3ccccc3)c3ncc(-c4c(C)noc4C)cc23)c1` [P-0082, 3-(1-benzyl-5-(3,5-dimethylisoxazol-4-yl)-1H-pyrrolo[2,3-b]pyridin-3-yl)-N-methylbenzenesulfonamide] reads 5.10 to 6.00; that for `Cc1noc(C)c1-c1cnc2c(c1)c(-c1cccc(S(=O)(=O)NC3CC3)c1)cn2Cc1ccccc1` [P-0083, 3-(1-benzyl-5-(3,5-dimethylisoxazol-4-yl)-1H-pyrrolo[2,3-b]pyridin-3-yl)-N-cyclopropylbenzenesulfonamide], 5.10 to 6.00.
The result for `Cc1noc(C)c1-c1cnc2c(C(=O)C3CC3)c(O)n(-c3ccnc(C(=O)O)c3)c2c1` [P-0084, 4-(3-(cyclopropanecarbonyl)-6-(3,5-dimethylisoxazol-4-yl)-2-hydroxy-1H-pyrrolo[3,2-b]pyridin-1-yl)picolinic acid] reads 6.00 to 10.00.
As for `Cc1noc(C)c1-c1cnc2c(c1)c(-c1cccc(C(=O)O)c1)cn2C(=O)c1ccccc1` [P-0085, 3-(1-benzoyl-5-(3,5-dimethylisoxazol-4-yl)-1H-pyrrolo[2,3-b]pyridin-3-yl)benzoic acid], the pIC50 was 3.00 to 5.10.
The figure for `Cc1noc(C)c1-c1cnc2c(CC3CCC3)cn(-c3c(C(=O)O)ccc(Br)c3F)c2c1` [P-0086, 4-bromo-2-(3-(cyclobutylmethyl)-6-(3,5-dimethylisoxazol-4-yl)-1H-pyrrolo[3,2-b]pyridin-1-yl)-3-fluorobenzoic acid] is 5.10 to 6.00; for `COc1c(-n2cc(CC3CCC3)c3ncc(-c4c(C)noc4C)cc32)ccc(C(=O)O)c1F` [P-0087, 4-(3-(cyclobutylmethyl)-6-(3,5-dimethylisoxazol-4-yl)-1H-pyrrolo[3,2-b]pyridin-1-yl)-2-fluoro-3-methoxybenzoic acid] it is 5.10 to 6.00; for `Cc1noc(C)c1-c1cnc2c(C(=O)c3cccc(Cl)c3)cn(-c3ccnc(C(=O)O)c3)c2c1` [P-0088, 4-(3-(3-chlorobenzoyl)-6-(3,5-dimethylisoxazol-4-yl)-1H-pyrrolo[3,2-b]pyridin-1-yl)picolinic acid] it is 5.10 to 6.00.
Regarding `Cc1noc(C)c1-c1cnc2c(C(=O)c3ccccc3Cl)cn(-c3ccnc(C(=O)O)c3)c2c1` [P-0089, 4-(3-(2-chlorobenzoyl)-6-(3,5-dimethylisoxazol-4-yl)-1H-pyrrolo[3,2-b]pyridin-1-yl)picolinic acid], the negative logarithm of the IC50 (pIC50) was 5.10 to 6.00.
Take `Cc1noc(C)c1-c1cnc2c(Cc3cccc(Cl)c3)cn(-c3ccnc(C(=O)O)c3)c2c1` [P-0090, 4-(3-(3-chlorobenzyl)-6-(3,5-dimethylisoxazol-4-yl)-1H-pyrrolo[3,2-b]pyridin-1-yl)picolinic acid]: the pIC50 was 6.00 to 10.00.
As for `Cc1noc(C)c1-c1cnc2c(Cc3ccccc3Cl)cn(-c3ccnc(C(=O)O)c3)c2c1` [P-0091, 4-(3-(2-chlorobenzyl)-6-(3,5-dimethylisoxazol-4-yl)-1H-pyrrolo[3,2-b]pyridin-1-yl)picolinic acid], the negative logarithm of the IC50 (pIC50) is 5.10 to 6.00.
Take `Cc1noc(C)c1-c1cnc2c(c1)c(-c1cccc(C(=O)NS(C)(=O)=O)c1)cn2Cc1ccccc1` [P-0092, 3-(1-benzyl-5-(3,5-dimethylisoxazol-4-yl)-1H-pyrrolo[2,3-b]pyridin-3-yl)-N-(methylsulfonyl)benzamide]: the pIC50 is 5.10 to 6.00.
As for `Cc1noc(C)c1-c1cnc2c(c1)c(C1=CCC(C(=O)O)CC1)cn2Cc1ccccc1` (centres unmarked) [P-0093, 4-(1-benzyl-5-(3,5-dimethylisoxazol-4-yl)-1H-pyrrolo[2,3-b]pyridin-3-yl)cyclohex-3-ene-1-carboxylic acid], the negative logarithm of the IC50 (pIC50) is 5.10 to 6.00.
As to `Cc1noc(C)c1-c1cnc2c(c1)c(-c1c(F)cc(C(=O)O)cc1F)cn2C(C)c1ccccn1` (centres unmarked) [P-0094, 4-(5-(3,5-dimethylisoxazol-4-yl)-1-(1-(pyridin-2-yl)ethyl)-1H-pyrrolo[2,3-b]pyridin-3-yl)-3,5-difluorobenzoic acid], the negative-log IC50 (pIC50) was 3.00 to 5.10.
`Cc1noc(C)c1-c1cnc2c(c1)c(-c1c(Cl)cc(C(=O)O)cc1Cl)cn2C(C)c1ccccn1` (centres unmarked) [P-0095, 3,5-dichloro-4-(5-(3,5-dimethylisoxazol-4-yl)-1-(1-(pyridin-2-yl)ethyl)-1H-pyrrolo[2,3-b]pyridin-3-yl)benzoic acid]: the pIC50 was 5.10 to 6.00.
In the case of `Cc1noc(C)c1-c1cnc2c(c1)c(-c1c(F)ccc(NS(C)(=O)=O)c1F)cn2C(C)c1ccccn1` (centres unmarked) [P-0096, N-(3-(5-(3,5-dimethylisoxazol-4-yl)-1-(1-(pyridin-2-yl)ethyl)-1H-pyrrolo[2,3-b]pyridin-3-yl)-2,4-difluorophenyl)methanesulfonamide], the pIC50 is 5.10 to 6.00.
